Where “and” joins values, the source holds several entries; their conditions need not be identical. Identical values can stand only once. Counter-ions that a name gives are not always drawn.
Legend:
En-1 [1] = test: En-1 mRNA expression by qPCR in primary ventral midbrain cultures; details: for fold induction at 10 µM: Mus musculus, 24 h, read-out: Fold Increase in En-1 Expression
Protocol: (§5) One library consisting of FDA-approved and non-FDA approved drugs (NINDS) was screened for drugs with an ability to up-regulate En-1 and/or FoxA2 expression in neuronal cells. Candidate compounds were screened in a gene expression assay using a qPCR detection methodology in a primary ventral midbrain preparation of E12 mice.
(§6) To determine the extent of upregulation in the compounds of interest after initial screening, primary cultures of ventral midbrain cells of E12 CD1 mice were prepared. The embryonic ventral midbrains were removed and stored in HBSS on ice. The dissection time was less than 30-60 minutes. The ventral midbrain tissue was dissociated by removal of the HBSS and addition of 1 ml of 0.05% trypsin-EDTA for 10 minutes at 37° C. During incubation, the tissue and the trypsin-EDTA solution was mixed by occasional careful swirling of the tube. The reaction was stopped, the trypsin aspirated, and 1 ml of 50% HBSS/FBS was added. […] Candidate compound treatment was stopped by cell lysis. The mRNA was isolated and cDNA was synthesized using the Qiagen Turbocapture™ kit (Qiagen Inc., Valencia, Calif.) using Superscript III® reverse transcriptase (Life Technologies, Carlsbad, Calif.) according to manufacturer's protocol. En-1 and FOXA2 mRNA in the cultured cells was quantified using qPCR. […] Assay fluorescence was determined using a Step-One Plus fluorescence plate reader in 96-well plates at a standard reaction time for ramp speed.
(§7) The fold change in mRNA expression level was calculated according to the following formulas:
Fold change=2^−ΔΔCt wherein [1]
(§8) ΔΔCt=(Cttarget gene−Ct18S)treated−(Cttarget gene−Ct18S)untreated.
(§9) In formula 2, Cttarget gene refers to the Ct value determined for either En-1 or FOXA2 (as appropriate) and Ct18S refers to the Ct value determined for the mRNA encoding the 18S ribosomal subunit, each measured by qPCR.

FoxA2 [2] = test: FoxA2 mRNA expression by qPCR in primary ventral midbrain cultures; details: for fold induction at 10 µM: Mus musculus, 24 h, read-out: Fold Increase in FoxA2 Expression
Protocol: as §5, §6, §7
Fold change=2^−ΔΔCt wherein [1]
as §8, §9

[3] = system: FoxA2 positive dopaminergic neurons; details: 10 μM pre-treatment 24 hours prior to 6-OHDA (1-50 μM); control = cells not exposed to toxin
Protocol: The embryonic ventral midbrains were removed and stored in HBSS on ice. The dissection time was less than 30-60 minutes. The ventral midbrain tissue was dissociated by removal of the HBSS and the addition of 1 ml of 0.05% trypsin-EDTA for 10 minutes at 37° C. During incubation, the tissue and the trypsin-EDTA solution was mixed by occasional careful swirling of the tube. The reaction was stopped, the trypsin aspirated, and 1 ml of 50% HBSS/FBS was added. […] The tissue was triturated using an autoclaved glass pasteur pipette with narrowed opening and a stripettor. The cell suspension was centrifuged at 1000 rpm for 5 min, the supernatant aspirated, and the cells resuspended in E12 media. Twenty-five thousand cells per well were plated in 96 well PLO/laminin coated black-wall imaging plates (Costar) and incubated for 6 days without candidate compound treatment. […] 6-hydroxydopamine hydrobromide (6-OHDA) (Sigma) was reconstituted in ascorbic acid and PBS and added at concentrations of 1-50 μM to the cultures. […] Cultures were stained for tyrosine hydroxylase, FoxA2 and Hoechst and visualized using alexa fluor secondary antibodies. Cultures were analyzed by high content analysis (using an InCell 2000 instrument). The percentage of FoxA2 positive dopaminergic neurons were documented.

FoxA2 [4] = details: adult male C57 mice, 20 mg/kg/day subcutaneous for 12 days, n=8, qPCR vs GAPDH and β-actin, listed as duloxetine HCl, hydrochloride
Protocol: (§1) Adult mice were treated with duloxetine HCl (20 mg/kg/day) by subcutaneous injection for 12 days (n=8). […] Data were obtained by qPCR analysis using GAPDH and β-actin as housekeeping genes followed by ΔΔCt calculation.
(§2) Duloxetine HCl (20 mg/kg/day) or saline vehicle was administrated subcutaneously into adult male C57 mice over a period of 12 days. […] Substantia nigra pars compacta was fresh dissected and snap frozen in RNA preserving solution in liquid nitrogen. […] Changes in mRNA expression due to duloxetine HCl treatment were determined by quantitative PCR using a Step One Plus Instrument and TaqMan® reagents (Applied Biosystems). […] Beta actin and GAPD were used as housekeeping genes and fold regulation was calculated using the delta Ct method.
(§3) ΔΔCt=(Cttarget gene−Cthousekeeping gene)treated−(Cttarget gene−Cthousekeeping gene)untreated
(§4) Untreated refers to combined cDNA from the saline treated animals. cDNA from each saline treated animal was also run against the pooled control cDNA.

En-1 [5] = details: adult male C57 mice, 20 mg/kg/day subcutaneous for 12 days, n=8, qPCR vs GAPDH and β-actin, listed as duloxetine HCl, hydrochloride
Protocol: as §1, §2, §3, §4

[6] = cited from earlier work
[7] = primary ventral midbrain cells of E12 CD1 mice, 10 μM for 24 hours, qPCR vs 18S

CC(=O)c1ccc(S(=O)(=O)NC(=O)NC2CCCCC2)cc1 [Acetohexamide]
fold induction at 10 µM (En-1 [1]): 2.3 | fold induction at 10 µM (FoxA2 [2]): 3

CNCC[C@H](Oc1cccc2ccccc12)c1cccs1 [Duloxetine hydrochloride]
DA neuron survival as a percentage of control [3]: 107% | FoxA2 mRNA expression in substantia nigra, fold increase (FoxA2 [4]): 2.19 fold and 2.19±0.23 fold | En-1 mRNA expression in substantia nigra, fold increase (En-1 [5]): 1.98 fold and 1.98±0.098 fold | fold induction at 10 µM (En-1 [1]): 19 | fold induction at 10 µM (FoxA2 [2]): 49.5

CNCC[C@H](Oc1cccc2ccccc12)c1cccs1 [Duloxetine]
dosage hydrolyzed to 1-naphthol ([6]; pH 1.0, within one hour): 50% | dosage degraded to 1-naphthol ([6]; pH 2.0, in one hour): 10% | time for 10% degradation ([6]; pH 4.0): up to 63 hours

O=C(O)c1ccccc1Nc1cccc(C(F)(F)F)c1 [Flufenamic acid]
fold induction at 10 µM (En-1 [1]): 2.6 | fold induction at 10 µM (FoxA2 [2]): 3.4

CC1(C)O[C@@H]2C[C@H]3[C@@H]4C[C@H](F)C5=CC(=O)CC[C@]5(C)[C@H]4[C@@H](O)C[C@]3(C)[C@]2(C(=O)CO)O1 [Flurandrenolide]
fold induction at 10 µM (En-1 [1]): 1.5 | fold induction at 10 µM (FoxA2 [2]): 1.9

CC(=O)O[C@]1(C(C)=O)CC[C@H]2[C@@H]3C=C(C)C4=CC(=O)CC[C@]4(C)[C@H]3CC[C@@]21C [Megestrol acetate]
fold induction at 10 µM (En-1 [1]): 2.14 | fold induction at 10 µM (FoxA2 [2]): 1.89

Cn1cc[nH]c1=S [Methimazole]
fold induction at 10 µM (En-1 [1]): 0.2 | fold induction at 10 µM (FoxA2 [2]): 1.97

COc1ccccc1OCC(O)COC(N)=O (stereo not drawn) [Methocarbamol]
fold induction at 10 µM (En-1 [1]): 1.83 | fold induction at 10 µM (FoxA2 [2]): 2.3

C[N+]1(C)[C@@H]2C[C@@H](OC(=O)[C@H](CO)c3ccccc3)C[C@H]1[C@@H]1O[C@@H]12 [Methscopolamine bromide]
fold induction at 10 µM (En-1 [1]): 1.9 | fold induction at 10 µM (FoxA2 [2]): 1.9

C[C@H]1C[C@@H]2[C@H]([C@@H](O)C[C@@]3(C)[C@H]2CC[C@]3(O)C(=O)CO)[C@@]2(C)C=CC(=O)C=C12 [Methylprednisolone]
fold induction at 10 µM (En-1 [1]): 1.38 | fold induction at 10 µM (FoxA2 [2]): 1.41

Cc1cc(=O)[nH]c(=S)[nH]1 [Methylthiouracil]
fold induction at 10 µM (FoxA2 [2]): 2.34

CO[C@@]1(NC(=O)C(C(=O)O)c2ccc(O)cc2)C(=O)N2C(C(=O)O)=C(CSc3nnnn3C)CO[C@@H]21 (stereo partly drawn) [Moxalactam disodium]
fold induction at 10 µM (En-1 [1]): 4.34 | fold induction at 10 µM (FoxA2 [2]): 7.31

O=C1CC[C@@]2(O)[C@H]3Cc4ccc(O)c5c4[C@@]2(CCN3CC2CC2)[C@H]1O5 [Naltrexone hydrochloride]
fold induction at 10 µM (En-1 [1]): 2.09 | fold induction at 10 µM (FoxA2 [2]): 3.39

c1ccc2c(CC3=NCCN3)cccc2c1 [Naphazoline hydrochloride]
fold induction at 10 µM (En-1 [1]): 8.95 | fold induction at 10 µM (FoxA2 [2]): 1.99

NC(=O)c1cc([N+](=O)[O-])cc([N+](=O)[O-])c1 [Nitromide]
Fold Increase in En-1 Expression (En-1 [1]; [7]): 0.28 Fold | Fold Increase in FoxA2 Expression (FoxA2 [2]; [7]): 1.55 Fold

COc1ccc2c(c1OC)C(=O)O[C@@H]2[C@H]1c2c(cc3c(c2OC)OCO3)CCN1C [Noscapine hydrochloride]
fold induction at 10 µM (En-1 [1]): 1.83 | fold induction at 10 µM (FoxA2 [2]): 1.45

CC(CCc1ccccc1)NC(C)C(O)c1ccc(O)cc1 (stereo not drawn) [Nylidrin hydrochloride]
fold induction at 10 µM (FoxA2 [2]): 1.7

Cc1ccccc1C(OCCN(C)C)c1ccccc1 (stereo not drawn) [Orphenadrine citrate]
fold induction at 10 µM (En-1 [1]): 1.69 | fold induction at 10 µM (FoxA2 [2]): 1.82

C#CCN(C)Cc1ccccc1 [Pargyline hydrochloride]
fold induction at 10 µM (En-1 [1]): 1.73 | fold induction at 10 µM (FoxA2 [2]): 1.27

NNCCc1ccccc1 [Phenelzine sulfate]
fold induction at 10 µM (FoxA2 [2]): 2.5

CC(C)NCC(O)COc1cccc2[nH]ccc12 (stereo not drawn) [Pindolol]
fold induction at 10 µM (En-1 [1]): 9.8 | fold induction at 10 µM (FoxA2 [2]): 44.1

CCC1(c2ccccc2)C(=O)NCNC1=O [Primidone]
fold induction at 10 µM (En-1 [1]): 0.86 | fold induction at 10 µM (FoxA2 [2]): 1.43

CCCc1cc(=O)[nH]c(=S)[nH]1 [Propylthiouracil]
fold induction at 10 µM (En-1 [1]): 1.3 | fold induction at 10 µM (FoxA2 [2]): 1.68

CC(N)C12CC3CC(CC(C3)C1)C2 (stereo not drawn) [Rimantadine hydrochloride]
fold induction at 10 µM (En-1 [1]): 1.3 | fold induction at 10 µM (FoxA2 [2]): 2.7

CC(=O)S[C@@H]1CC2=CC(=O)CC[C@]2(C)[C@H]2CC[C@@]3(C)[C@@H](CC[C@@]34CCC(=O)O4)[C@H]12 [Spironolactone]
fold induction at 10 µM (En-1 [1]): 1.34 | fold induction at 10 µM (FoxA2 [2]): 1.74

CCN1CCCC1CNC(=O)c1cc(S(N)(=O)=O)ccc1OC (stereo not drawn) [Sulpiride]
fold induction at 10 µM (En-1 [1]): 1.4 | fold induction at 10 µM (FoxA2 [2]): 1.7

c1ccc2c(c1)CCCC2C1=NCCN1 (stereo not drawn) [Tetrahydrozoline hydrochloride]
fold induction at 10 µM (En-1 [1]): 1.06 | fold induction at 10 µM (FoxA2 [2]): 2.06

c1ccc(CC2=NCCN2)cc1 [Tolazoline hydrochloride]
fold induction at 10 µM (En-1 [1]): 2.51 | fold induction at 10 µM (FoxA2 [2]): 2.67

CCCCNC(=O)NS(=O)(=O)c1ccc(C)cc1 [Tolbutamide]
fold induction at 10 µM (En-1 [1]): 21.6 | fold induction at 10 µM (FoxA2 [2]): 35

CCOC(=O)[C@H](CCc1ccccc1)N[C@@H](C)C(=O)N1[C@H](C(=O)O)C[C@H]2CCCC[C@@H]21 [Trandolapril]
fold induction at 10 µM (En-1 [1]): 17.9

Source: patent US20130261165A1, “PREVENTION AND TREATMENT OF DISEASES CHARACTERIZED BY MESENCEPHALIC DOPAMINERGIC NEURON CELL DEATH” (THE MCLEAN HOSPITAL CORPORATION, priority 2010, published 2013)
